Assay results from the supplement of paper PMC10307832.

What was measured:
Test in all cases: relative viability (nuclei count vs DMSO), 5 days (fraction); higher = more cells survive
Crenolanib + AZD7762 = compound: CC1(COc2ccc3c(c2)ncn3-c2ccc3cccc(N4CCC(N)CC4)c3n2)COC1 [Crenolanib] + NC(=O)Nc1cc(-c2cccc(F)c2)sc1C(=O)N[C@H]1CCCNC1 [AZD7762] (partner 0.2 µM)
How it was run: (§1)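 Each reported value is a median over duplicate plates. It expresses relative viability: treated-well nuclei count divided by vehicle-well nuclei count. Lung cancer cell lines in 1536-well plates were dosed by pin tool a day after seeding, alone with one drug or with a fixed anchor-drug dose plus five library-drug doses (not always all listed) in √10 steps, and nuclei were counted after 5 days.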

Tivantinib + Foretinib = compound: O=C1NC(=O)[C@@H](c2cn3c4c(cccc24)CCC3)[C@@H]1c1c[nH]c2ccccc12 [Tivantinib] + COc1cc2c(Oc3ccc(NC(=O)C4(C(=O)Nc5ccc(F)cc5)CC4)cc3F)ccnc2cc1OCCCN1CCOCC1 [Foretinib] (partner 0.25 µM)
How it was run: as §1

Tivantinib + Crizotinib = compound: O=C1NC(=O)[C@@H](c2cn3c4c(cccc24)CCC3)[C@@H]1c1c[nH]c2ccccc12 [Tivantinib] + C[C@@H](Oc1cc(-c2cnn(C3CCNCC3)c2)cnc1N)c1c(Cl)ccc(F)c1Cl [Crizotinib] (partner 1 µM)
How it was run: as §1

Crenolanib + Olaparib = compound: CC1(COc2ccc3c(c2)ncn3-c2ccc3cccc(N4CCC(N)CC4)c3n2)COC1 [Crenolanib] + O=C(c1cc(Cc2n[nH]c(=O)c3ccccc23)ccc1F)N1CCN(C(=O)C2CC2)CC1 [Olaparib] (partner 8 µM)
How it was run: as §1

| Cell Line | relative viability (Crenolanib + AZD7762; first compound 0.01 µM) | relative viability (Crenolanib + AZD7762; first compound 0.03162 µM) | relative viability (Crenolanib + AZD7762; first compound 0.1 µM) | relative viability (Crenolanib + AZD7762; first compound 0.3162 µM) | relative viability (Crenolanib + AZD7762; first compound 1 µM) | relative viability (Tivantinib + Foretinib; first compound 0.01 µM) | relative viability (Tivantinib + Foretinib; first compound 0.03162 µM) | relative viability (Tivantinib + Foretinib; first compound 0.1 µM) | relative viability (Tivantinib + Foretinib; first compound 0.3162 µM) | relative viability (Tivantinib + Crizotinib; first compound 0.01 µM) | relative viability (Tivantinib + Crizotinib; first compound 0.03162 µM) | relative viability (Tivantinib + Crizotinib; first compound 0.1 µM) | relative viability (Tivantinib + Crizotinib; first compound 0.3162 µM) | relative viability (Crenolanib + Olaparib; first compound 0.01 µM) | relative viability (Crenolanib + Olaparib; first compound 0.03162 µM) | relative viability (Crenolanib + Olaparib; first compound 0.1 µM) | relative viability (Crenolanib + Olaparib; first compound 0.3162 µM) | relative viability (Crenolanib + Olaparib; first compound 1 µM) |
| --- | --- | --- | --- | --- | --- | --- | --- | --- | --- | --- | --- | --- | --- | --- | --- | --- | --- | --- |
| LCLC-103H | 0.758 | 0.761 | 0.714 | 0.759 | 0.702 | 0.783 | 0.68 | 0.735 | 0.663 | 0.996 | 1.04 | 1.05 | 0.941 | 0.751 | 0.759 | 0.68 | 0.698 | 0.712 |
| LK-2 | 0.483 | 0.46 | 0.423 | 0.499 | 0.453 | 1.48 | – | 1.16 | 0.929 | 0.2 | – | 0.223 | 0.218 | 0.837 | 0.572 | 0.655 | 1.06 | 0.585 |
| LOU-NH91 | 0.765 | 0.762 | 0.782 | 0.817 | 0.697 | 0.901 | 0.925 | 0.939 | 0.573 | 0.746 | 0.729 | 0.705 | 0.53 | 0.943 | 0.88 | 0.837 | 0.971 | 0.905 |
| LU99A | 0.42 | 0.419 | 0.414 | 0.467 | 0.401 | 0.692 | 0.84 | 0.737 | 0.6 | 0.516 | 0.593 | 0.576 | 0.413 | 0.274 | 0.283 | 0.281 | 0.22 | 0.27 |
| LXF-289 | 1.03 | 1.13 | 1.09 | 1.11 | 1.05 | 0.96 | 0.927 | 0.95 | 0.983 | 0.792 | 0.819 | 0.777 | 0.827 | 1.08 | 0.954 | 1 | 1.16 | 1.08 |
| NCI-H23 | 0.273 | 0.309 | 0.244 | 0.268 | 0.276 | 1.08 | 0.957 | 1 | 0.801 | 0.511 | 0.615 | 0.512 | 0.416 | 0.311 | 0.278 | 0.282 | 0.347 | 0.341 |
| NCI-H322M | 0.589 | 0.52 | 0.555 | 0.544 | 0.695 | 1.02 | 0.922 | 0.943 | – | 0.823 | 0.94 | 0.901 | 1.02 | 0.741 | 0.779 | 0.651 | 0.806 | 0.795 |
| NCI-H358 | 0.577 | 0.67 | 0.465 | 0.537 | 0.584 | 0.716 | 0.754 | 0.508 | 0.273 | 0.651 | 0.574 | 0.709 | 0.301 | 0.641 | 0.594 | 0.529 | 0.678 | 0.603 |
| NCI-H441 | 1.24 | 1.56 | 1.15 | 1.33 | 1.17 | 0.749 | 1.1 | 1.01 | 0.876 | 0.847 | 0.725 | 0.546 | 0.801 | 0.602 | 0.524 | 0.608 | 0.56 | 0.535 |
| NCI-H460 | 0.668 | 0.482 | 0.695 | 0.872 | 0.86 | 0.935 | 1.06 | 0.94 | 0.97 | 0.878 | 0.884 | 0.848 | 0.217 | 0.445 | 0.366 | 0.405 | 0.438 | 0.415 |
| NCI-H596 | 1.27 | 1.16 | 1.03 | 1.22 | 1.11 | 0.855 | 0.835 | 1.1 | 0.895 | 1.08 | 0.92 | 0.987 | 0.905 | 0.731 | 0.806 | 0.68 | 0.64 | 0.681 |
| NCI-H647 | 0.616 | 0.497 | 0.448 | 0.481 | 0.424 | 1.25 | 1.18 | 1.12 | 1.21 | 1.18 | 1.07 | 1.03 | 0.995 | 0.477 | 0.512 | 0.511 | 0.802 | 0.586 |
| NCI-H650 | 1.06 | 0.975 | 1.01 | 0.864 | 0.936 | 1.03 | 0.987 | 0.989 | 0.822 | 0.728 | – | 0.629 | 0.557 | 0.4 | 0.379 | 0.343 | 0.339 | 0.325 |
| NCI-H727 | 0.702 | 0.445 | 0.546 | 0.671 | 0.587 | 0.829 | 0.857 | 0.629 | 0.732 | 0.764 | 0.96 | 0.88 | – | 0.678 | 0.652 | 0.646 | 0.627 | 0.847 |
| NCI-H838 | 0.883 | 0.977 | 0.886 | 0.924 | 0.901 | 1 | 1.07 | 0.992 | 1.07 | 0.831 | 0.924 | 0.886 | 0.963 | 0.828 | 0.776 | 0.735 | 0.855 | 0.635 |
| NCI-H1355 | 0.729 | 0.89 | 0.705 | 0.732 | 0.653 | 1.08 | 1.03 | 0.995 | 0.915 | 1.15 | 1.1 | 1.01 | 0.806 | 0.812 | 0.817 | 0.739 | 0.784 | 0.651 |
| SK-LU-1 | – | – | – | – | – | 0.932 | 0.919 | 0.705 | 0.708 | 0.95 | 1.01 | 0.872 | 0.716 | 0.547 | 0.491 | 0.331 | 0.7 | 0.534 |
| SK-MES-1 | – | – | – | – | – | 1.02 | 0.637 | 0.962 | 0.924 | 0.984 | 1.06 | 0.89 | 0.739 | 0.759 | 0.705 | 0.682 | 0.791 | 0.674 |
| SW 1573 | – | – | – | – | – | 1.04 | 0.83 | 0.804 | 0.863 | 0.751 | 0.761 | 0.902 | 0.496 | 0.589 | 0.416 | 0.44 | 0.651 | 0.484 |
